Results as given in patent publication US12714683B2, “Treatment of CNS disorders with sleep disturbances” (University of Copenhagen, priority 2019, dated 2026).

Tests used:
rat CaMK2a = experiment: 3H-HOCPCA filtration binding to recombinant wild-type or mutated CaMK2a expressed in HEK293T cells; details: hub domain mutations Arg433Gln, Arg453Gln, Arg469Cys/Arg469Gln; HEK whole cell homogenates; expression confirmed by WB; FIG. 2
Description: ^3H-HOCPCA Binding to Recombinant CaMK2a Expressed in HEK293T Cells
HEK293T cells were cultured using standard conditions, using Dulbecco's modified Eagle Medium with GlutaMax, 10% fetal bovine serum and 1% penicillin-streptomycin, and incubated at 37° C. in a humidified atmosphere of […] and 5% CO2. Site-directed mutagenesis was done using point mutations and performed by GenScript USA Inc. Cells were transfected with wild-type or mutated cmyc-tagged rat CaMK2a (Origene construct RR201121), using polyethimine, linear, MW 25000 (Polysciences Inc., Warrington, PA, USA). Whole cell homogenates were prepared 48 hr post-transfection by washing the cells with ice-cold 1×PBS and harvesting by scraping. Cells were collected and centrifuged for 10 min at 1000×g. Cell pellets were resuspended in ice-cold 1×PBS and homogenized using 2×1 mm zirkonium beads in a bullet blender for 20 s at max speed (NextAdvance, NY, USA). Homogenates were cleared by centrifugation (10 min, 4° C., […]). Protein concentration was determined using the Bradford protein assay. […] Nonspecific binding was determined with 1-10 mM GHB. […] The dried filters were added scintillation liquid and radioactivity measured on a Tricarb 2100 Scintillation counter (Packard). […]
Total expression levels of CaMK2a were assessed by Western blot with anti-myc-Alexa488 (MA1980-A488, ThermoFisher Scientific). […]

CaMK2a [1] = target: T1, CaMK2a (Mus musculus, UniProt P11798); experiment: Mouse brain 3H-HOCPCA autoradiography (Angelman syndrome Ube3a m-/p+ vs wild-type brain slices); format: binding; details: Ube3a m-/p+ (HET, Angelman syndrome) mice vs WT; 1 nM radioligand; most pronounced in hippocampus; FIG. 1
T1 construct: mouse brains from either (Ube3a^m−/p+) or wildtype mice, were dissected, sliced on a cryostat; from tissue; host or cells: mouse brain slices (Ube3a m-/p+ and wild-type)

[2] = tested on: DTA narcolepsy mouse model; experiment: DTA mouse model of narcolepsy, sleep-wake EEG/EMG and cataplexy; format: in vivo; details: two-way ANOVA, p=0.0017, n=5-6; FIG. 3
Excerpt: (§1) Using the DTA narcolepsy mouse model we are determining changes in sleepwake EEG/EMG patterns (including cataplexy) at different time points (1 day to 3 weeks) under the influence of a compound of Formula I (Ph-HTBA). After drug cessation, EEG/EMG changes are then further mapped for up to 4 weeks. Under anesthesia with isoflurane (2% to 2.5% in O2) electrodes are placed in the scull and neck muscles of the mice. After 5-10 days recovery the electrodes are connected to a recording system, and EEG/EMG signals are recorded with synchronised video recordings. From the data, sleep/wake parameters and cataplexy episodes are scored and calculated FIG. 3).

[3] = tested on: mouse model of narcolepsy type 1; details: Black et al. J Neurosci 2014; cited from earlier work
[4] = tested on: hypocretin knock-out mouse model; experiment: Hypocretin knock-out mouse model of narcolepsy, sleep-wake EEG/EMG and cataplexy; format: in vivo; details: for cataplexy: mixed-effects model with post hoc Sidak, FIG. 4
Excerpt: as §1, with “hypocretin knock-out” for “DTA narcolepsy”, “determine” for “are determining”, “sleep-wake” for “sleepwake”, “compound (HOCPCA)” for “compound”, “I.” for “I (Ph-HTBA).”, “(FIG. 4-5).” for “FIG. 3).”

GABAB receptors = GABAB receptors (Homo sapiens, UniProt Q9UBS5); details: cited from earlier work
CaMK2a [5] = target: CaMK2a (Homo sapiens, UniProt Q9UQM7); details: cited from earlier work
Chain of CaMK2a (Homo sapiens, UniProt Q9UQM7) (Q9UQM7 whole entry): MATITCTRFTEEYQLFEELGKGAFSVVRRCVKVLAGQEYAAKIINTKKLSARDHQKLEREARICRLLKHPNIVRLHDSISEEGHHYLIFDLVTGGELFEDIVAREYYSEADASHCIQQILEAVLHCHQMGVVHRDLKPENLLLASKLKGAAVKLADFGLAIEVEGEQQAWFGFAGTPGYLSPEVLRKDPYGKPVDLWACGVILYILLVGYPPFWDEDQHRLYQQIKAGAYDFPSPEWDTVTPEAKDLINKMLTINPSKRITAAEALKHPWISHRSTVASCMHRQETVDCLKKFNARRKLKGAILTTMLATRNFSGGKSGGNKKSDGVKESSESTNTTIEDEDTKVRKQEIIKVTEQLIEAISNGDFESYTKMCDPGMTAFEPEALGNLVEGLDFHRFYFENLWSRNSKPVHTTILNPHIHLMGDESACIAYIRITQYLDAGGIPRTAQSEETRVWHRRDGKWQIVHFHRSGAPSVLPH

T1 sequence (P11798 whole entry): as the sequence (Q9UQM7 whole entry) above, with S324N counted along it
Chain of GABAB receptors (Q9UBS5 15-961 limits assumed): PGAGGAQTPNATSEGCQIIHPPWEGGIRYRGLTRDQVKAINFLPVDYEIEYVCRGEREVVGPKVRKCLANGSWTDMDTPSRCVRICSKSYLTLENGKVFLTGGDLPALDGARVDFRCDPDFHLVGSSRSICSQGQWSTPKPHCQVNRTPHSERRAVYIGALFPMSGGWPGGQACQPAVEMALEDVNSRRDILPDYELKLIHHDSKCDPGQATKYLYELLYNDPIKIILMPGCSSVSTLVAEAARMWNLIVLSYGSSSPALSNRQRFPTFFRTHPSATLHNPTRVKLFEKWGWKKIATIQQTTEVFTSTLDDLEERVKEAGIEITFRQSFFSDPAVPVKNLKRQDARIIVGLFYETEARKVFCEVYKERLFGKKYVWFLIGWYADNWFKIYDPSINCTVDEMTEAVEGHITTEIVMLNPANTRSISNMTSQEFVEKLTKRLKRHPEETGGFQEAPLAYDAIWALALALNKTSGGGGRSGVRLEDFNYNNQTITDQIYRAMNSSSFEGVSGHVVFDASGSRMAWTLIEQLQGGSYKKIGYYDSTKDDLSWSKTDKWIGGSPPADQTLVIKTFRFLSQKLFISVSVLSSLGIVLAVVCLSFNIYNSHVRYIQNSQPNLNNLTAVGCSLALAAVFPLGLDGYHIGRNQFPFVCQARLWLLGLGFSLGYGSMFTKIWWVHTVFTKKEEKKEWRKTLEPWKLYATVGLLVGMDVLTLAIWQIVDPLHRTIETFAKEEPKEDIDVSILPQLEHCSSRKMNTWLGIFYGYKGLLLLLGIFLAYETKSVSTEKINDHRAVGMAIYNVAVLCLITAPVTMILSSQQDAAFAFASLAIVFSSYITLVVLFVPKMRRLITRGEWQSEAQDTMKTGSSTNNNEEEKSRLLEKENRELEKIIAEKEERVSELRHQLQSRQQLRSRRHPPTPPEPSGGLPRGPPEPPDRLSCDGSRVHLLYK
Chain of GABAB receptors (O75899 42-941 partner): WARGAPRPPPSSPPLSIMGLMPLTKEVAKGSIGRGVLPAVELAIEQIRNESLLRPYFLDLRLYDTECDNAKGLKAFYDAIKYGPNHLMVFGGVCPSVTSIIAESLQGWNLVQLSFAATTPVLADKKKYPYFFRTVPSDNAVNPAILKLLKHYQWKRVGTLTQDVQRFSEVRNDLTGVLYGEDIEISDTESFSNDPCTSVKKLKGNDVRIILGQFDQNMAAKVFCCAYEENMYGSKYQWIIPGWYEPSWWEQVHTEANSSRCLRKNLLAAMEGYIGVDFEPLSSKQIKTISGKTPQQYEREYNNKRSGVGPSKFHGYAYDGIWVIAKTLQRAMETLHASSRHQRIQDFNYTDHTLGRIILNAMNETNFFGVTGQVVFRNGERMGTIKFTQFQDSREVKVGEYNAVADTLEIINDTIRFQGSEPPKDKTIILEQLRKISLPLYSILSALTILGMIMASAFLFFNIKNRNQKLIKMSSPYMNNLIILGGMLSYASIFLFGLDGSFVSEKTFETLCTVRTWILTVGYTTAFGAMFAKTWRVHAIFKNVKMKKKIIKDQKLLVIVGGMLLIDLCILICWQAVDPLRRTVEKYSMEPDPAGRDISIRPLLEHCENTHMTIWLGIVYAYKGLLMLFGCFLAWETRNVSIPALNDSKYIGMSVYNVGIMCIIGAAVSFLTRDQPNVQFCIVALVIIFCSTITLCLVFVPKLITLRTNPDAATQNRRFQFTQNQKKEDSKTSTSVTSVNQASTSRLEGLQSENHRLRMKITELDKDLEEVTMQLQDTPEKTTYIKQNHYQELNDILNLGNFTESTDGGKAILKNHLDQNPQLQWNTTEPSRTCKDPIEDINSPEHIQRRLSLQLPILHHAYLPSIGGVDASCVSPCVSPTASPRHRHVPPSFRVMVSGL

O=C(O)C1=CC(O)CC1 (stereo not drawn) [^3H-HOCPCA]
3H-HOCPCA binding to mutated CaMK2a compared to wild-type (rat CaMK2a): completely abolished binding
3H-HOCPCA binding levels in brain slices (CaMK2a [1]): Increased Binding

O=C(O)/C=C1\CCCc2cc(-c3ccccc3)ccc2C1O (stereo not drawn) [Ph-HTBA]
treatment effect on sleep/wake parameters and cataplexy episodes [2]: overall statistical significant effect

NCC(CC(=O)O)c1ccc(Cl)cc1 (stereo not drawn) [baclofen]
efficacy on narcolepsy symptoms [3]: has efficacy on narcolepsy symptoms

O=C(O)C1=CC(O)CC1 (stereo not drawn) [HOCPCA, 3-hydroxycyclopent-1-enecarboxylic acid]
cataplexy ([4]; day 8, p=0.044): decreases cataplexy significantly
cataplexy ([4]; day 15, p=0.010): decreases cataplexy significantly
wakefulness, medium long wake bouts ([4]; p=0.01, two-way ANOVA with post hoc Dunnett): significant decrease of medium long wake bouts

O=C(O)CCCO [GHB]
binding affinity to GABAB receptors (GABAB receptors): low affinity (millimolar)
binding affinity to specific protein in neurons (CaMK2a) (CaMK2a [5]): high affinity (nanomolar to micromolar)
